Test results from PubChem BioAssay (NCI).
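Abbreviation: GI50, concentration required for 50% inhibition of growth. At the TGI there is no net growth.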

Columns and labels:
Experiment in all cases: NCI anticancer screen, dose series, 384-well format
NCI-H23 lung = system: NCI-H23 lung
NCI-H322M lung = system: NCI-H322M lung
NCI-H460 NSCLC = system: NCI-H460 NSCLC
NCI-H522 lung = system: NCI-H522 lung
NCI/ADR-RES ovarian = system: NCI/ADR-RES ovarian
OVCAR-3 ovarian = system: OVCAR-3 ovarian
OVCAR-4 ovarian = system: OVCAR-4 ovarian
OVCAR-5 ovarian = system: OVCAR-5 ovarian
OVCAR-8 ovarian = system: OVCAR-8 ovarian
PC-3 prostate = system: PC-3 prostate
RPMI-8226 leukemia = system: RPMI-8226 leukemia
RXF 393 renal = system: RXF 393 renal
SF-268 CNS = system: SF-268 CNS
SF-295 CNS = system: SF-295 CNS
SF-539 CNS = system: SF-539 CNS
SK-MEL-28 melanoma = system: SK-MEL-28 melanoma
SK-MEL-5 melanoma = system: SK-MEL-5 melanoma
SK-OV-3 ovarian = system: SK-OV-3 ovarian
SN12C renal = system: SN12C renal
SNB-19 CNS = system: SNB-19 CNS
SNB-75 CNS = system: SNB-75 CNS
SR leukemia = system: SR leukemia
SW-620 colon = system: SW-620 colon
T-47D breast = system: T-47D breast
TK-10 renal = system: TK-10 renal
U251 glioblastoma = system: U251 glioblastoma
UACC-257 melanoma = system: UACC-257 melanoma
UACC-62 melanoma = system: UACC-62 melanoma
UO-31 renal = system: UO-31 renal

Work on `O=C(Nc1ccc(OC(F)(F)F)cc1)c1sccc1NCc1ccnc2ccccc12` yielded a GI50 (NCI-H23 lung) of 2.39 µM, a TGI (NCI-H23 lung) of 8.57 µM and a GI50 (NCI-H322M lung) of 4.43 µM. For the same molecule, the TGI (NCI-H322M lung) was 40.4 µM, the GI50 (NCI-H460 NSCLC) was 2.93 µM and the TGI (NCI-H460 NSCLC) was 10.6 µM. For the same molecule, the GI50 (NCI-H522 lung) was 2.96 µM, the TGI (NCI-H522 lung) was 11.6 µM and the GI50 (NCI/ADR-RES ovarian) was 2.8 µM. The TGI (NCI/ADR-RES ovarian) was 8.9 µM, the GI50 (OVCAR-3 ovarian) was 5.25 µM and the TGI (OVCAR-3 ovarian) was 19.6 µM. For the same molecule, the GI50 (OVCAR-4 ovarian) was 4.43 µM, the TGI (OVCAR-4 ovarian) was 19.6 µM and the GI50 (OVCAR-5 ovarian) was 8.44 µM. The TGI (OVCAR-5 ovarian) was 43.8 µM, the GI50 (OVCAR-8 ovarian) was 3.99 µM and the TGI (OVCAR-8 ovarian) was 16.2 µM. It also gave a GI50 (PC-3 prostate) of 4.56 µM, a TGI (PC-3 prostate) of 25.7 µM and a GI50 (RPMI-8226 leukemia) of 2.06 µM. It also gave a TGI (RPMI-8226 leukemia) of 4.59 µM, a GI50 (RXF 393 renal) of 2.97 µM and a TGI (RXF 393 renal) of 14.3 µM. The GI50 (SF-268 CNS) was 6.24 µM, the TGI (SF-268 CNS) was 32 µM and the GI50 (SF-295 CNS) was 3.9 µM. The TGI (SF-295 CNS) was 19 µM, the GI50 (SF-539 CNS) was 5.11 µM and the TGI (SF-539 CNS) was 19.8 µM. For the same molecule, the GI50 (SK-MEL-28 melanoma) was 5.71 µM, the TGI (SK-MEL-28 melanoma) was 35.2 µM and the GI50 (SK-MEL-5 melanoma) was 1.66 µM. It also gave a TGI (SK-MEL-5 melanoma) of 3.41 µM, a GI50 (SK-OV-3 ovarian) of 2.97 µM and a TGI (SK-OV-3 ovarian) of 9.49 µM. It also gave a GI50 (SN12C renal) of 3.82 µM, a TGI (SN12C renal) of 24.8 µM and a GI50 (SNB-19 CNS) of 11.9 µM. For the same molecule, the TGI (SNB-19 CNS) was over 100 µM, the GI50 (SNB-75 CNS) was 5.09 µM and the TGI (SNB-75 CNS) was 51.6 µM. For the same molecule, the GI50 (SR leukemia) was 1.81 µM, the TGI (SR leukemia) was 4.06 µM and the GI50 (SW-620 colon) was 6.31 µM. The TGI (SW-620 colon) was 23 µM, the GI50 (T-47D breast) was 2.03 µM and the TGI (T-47D breast) was 6.57 µM. It also gave a GI50 (TK-10 renal) of 11 µM, a TGI (TK-10 renal) of 65 µM and a GI50 (U251 glioblastoma) of 11.8 µM. It also gave a TGI (U251 glioblastoma) of over 100 µM, a GI50 (UACC-257 melanoma) of 3.51 µM and a TGI (UACC-257 melanoma) of 13.6 µM. For the same molecule, the GI50 (UACC-62 melanoma) was 2.76 µM, the TGI (UACC-62 melanoma) was 14.3 µM and the GI50 (UO-31 renal) was 8.23 µM. The TGI (UO-31 renal) was over 100 µM.
